For 34 compounds, IC50 results are on record in US11248013B2, “Tricyclic inhibitors of poly(ADP-ribose)polymerase” (Rakovina Therapeutics Inc., priority 2011, dated 2022).

Sequence of PARP-1 (P09874 whole entry): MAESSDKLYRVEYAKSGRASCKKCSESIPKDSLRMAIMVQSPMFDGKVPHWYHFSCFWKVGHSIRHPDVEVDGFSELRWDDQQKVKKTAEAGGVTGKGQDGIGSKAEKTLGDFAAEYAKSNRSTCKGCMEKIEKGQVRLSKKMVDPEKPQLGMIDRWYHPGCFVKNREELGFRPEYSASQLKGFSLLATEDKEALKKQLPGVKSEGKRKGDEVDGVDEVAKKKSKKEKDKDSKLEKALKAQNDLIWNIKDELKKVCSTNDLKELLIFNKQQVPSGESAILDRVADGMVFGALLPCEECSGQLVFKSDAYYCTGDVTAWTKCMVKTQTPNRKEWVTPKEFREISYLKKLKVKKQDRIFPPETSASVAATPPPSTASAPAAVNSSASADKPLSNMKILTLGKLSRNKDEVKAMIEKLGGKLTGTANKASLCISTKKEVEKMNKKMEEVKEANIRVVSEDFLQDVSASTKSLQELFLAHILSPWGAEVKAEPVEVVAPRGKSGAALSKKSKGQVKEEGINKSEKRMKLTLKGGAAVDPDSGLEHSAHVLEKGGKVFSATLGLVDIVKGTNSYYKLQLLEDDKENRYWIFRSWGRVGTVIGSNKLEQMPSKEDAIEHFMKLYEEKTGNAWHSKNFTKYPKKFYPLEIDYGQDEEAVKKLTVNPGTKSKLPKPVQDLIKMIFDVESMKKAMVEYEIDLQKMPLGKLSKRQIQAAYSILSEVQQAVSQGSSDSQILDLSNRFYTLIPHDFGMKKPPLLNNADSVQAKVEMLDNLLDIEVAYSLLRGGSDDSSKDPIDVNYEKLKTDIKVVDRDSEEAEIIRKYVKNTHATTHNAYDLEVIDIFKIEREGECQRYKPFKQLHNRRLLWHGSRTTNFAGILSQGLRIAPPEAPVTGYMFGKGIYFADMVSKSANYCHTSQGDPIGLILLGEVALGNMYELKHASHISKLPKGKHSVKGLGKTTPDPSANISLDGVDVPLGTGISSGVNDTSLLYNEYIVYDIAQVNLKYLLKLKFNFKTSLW

This experiment addresses PARP-1 (Homo sapiens (Human), UniProt P09874). Put plainly: PARP-1 Enzyme Assay (HT Universal Colorimetric PARP Assay Kit). The settings on record: OD450, read-out: IC50 (PARP-1 inhibition). It counts as biochemical. How it is done:
Inhibition of PARP-1 enzymatic activities was measured using an HT Universal Colorimetric PARP Assay Kit (Trevigen, catalogue #4677-096-K) following the standard procedures.
Serial dilutions of PARP compounds were added to appropriate wells. The compound was incubated with PARP enzyme at RT for 10 min, and the reaction was initiated by addition of the PARP substrate cocktail, Each concentration of compound was tested in triplicate wells. After 15 min reaction, the reaction was stopped, and the Strep-HRP was added into each well and incubated for 1 h at RT. After addition of TACS-Sapphire™ colorimetric substrate and incubated in dark for 15 min, the OD450 was read out with an EnVision instrument. IC50 values (the concentration at which 50% of the enzyme activity is inhibited) were calculated, which are determined over a range of different concentrations, normally from 10 μM to 0.1 nM.
As usually defined, the IC50 is the concentration that inhibits the measured activity by half. For the compound `O=c1[nH]nc(Cc2ccc(F)c(P3(=O)CCN(c4ccc(C(F)(F)F)cn4)CC3)c2)c2ccccc12` [Example 24, 4-(4-fluoro-3-(4-oxido-1-(5-(trifluoromethyl)pyridin-2-yl)-1,4-azaphosphinan-4-yl)benzyl)phthalazin-1(2H)-one], the IC50 was less than 100 nM.
For `O=c1[nH]nc(Cc2ccc(F)c(P3(=O)CCN(c4ccnc(Cl)n4)CC3)c2)c2ccccc12` [Example 17, 4-(3-(1-(2-chloropyrimidin-4-yl)-4-oxido-1,4-azaphosphinan-4-yl)-4-fluorobenzyl)phthalazin-1(2H)-one] the value was less than 100 nM; for `O=c1[nH]nc(Cc2ccc(F)c(P3(=O)CCN(c4ncc(Cl)cn4)CC3)c2)c2ccccc12` [Example 36, 4-(4-fluoro-3-(4-oxido-1-(5-(chloro)pyrimidin-2-yl)-1,4-azaphosphinan-4-yl)benzyl)phthalazin-1(2H)-one], less than 100 nM; for `O=c1[nH]nc(Cc2ccc(F)c(P3(=O)CCN(C4CC4)CC3)c2)c2ccccc12` [Example 38, 4-(3-(1-cyclopropyl-4-oxido-1,4-azaphosphinan-4-yl)-4-fluorobenzyl)phthalazin-1(2H)-one], less than 100 nM.
`CP1(=O)CCN(C(=O)c2cc(Cc3n[nH]c(=O)c4ccccc34)ccc2F)CC1` [Example 50, 4-[[4-fluoro-3-(4-methyl-4-oxo-1,4-azaphosphinane-1-carbonyl)phenyl]methyl]-2H-phthalazin-1-one]: the IC50 was less than 100 nM.
For `O=c1[nH]nc(Cc2ccc(F)c(P3(=O)CCN(c4cccc(C(F)(F)F)n4)CC3)c2)c2ccccc12` [Example 31, 4-(4-fluoro-3-(4-oxido-1-(6-(trifluoromethyl)pyridin-2-yl)-1,4-azaphosphinan-4-yl)benzyl)phthalazin-1(2H)-one] the value was 100 to 1000 nM; for `O=c1[nH]nc(Cc2ccc(F)c(P3(=O)CCN(c4ccccn4)CC3)c2)c2ccccc12` [Example 19, 4-(4-fluoro-3-(4-oxido-1-(pyridin-2-yl)-1,4-azaphosphinan-4-yl)benzyl)phthalazin-1(2H)-one], less than 100 nM.
The figure for `CC(C)N1CCP(=O)(c2cc(Cc3n[nH]c(=O)c4ccccc34)ccc2F)CC1` [Example 42, 4-(4-fluoro-3-(1-isopropyl-4-oxido-1,4-azaphosphinan-4-yl)benzyl)phthalazin-1(2H)-one] is less than 100 nM; for `[2H]C([2H])(c1ccc(F)c(P2(=O)CCN(C3CC3)CC2)c1)c1n[nH]c(=O)c2cc(F)ccc12` [Example 55, 4-[(3-(1-cyclopropyl-4-oxido-1,4-azaphosphinan-4-yl)-4-fluorophenyl)dideuteromethyl]-7-fluorophthalazin-1 (2H)-one] it is less than 100 nM; for `O=c1[nH]nc(Cc2ccc(F)c(P3(=O)CCN(CC(F)(F)F)CC3)c2)c2ccccc12` [Example 49, 4-(4-fluoro-3-(4-oxido-1-(2,2,2-trifluoroethyl)-1,4-azaphosphinan-4-yl)benzyl)phthalazin-1(2H)-one] it is less than 100 nM.
The figure for “4-(4-fluoro-3-(4-oxido-1-pivaloyl-1,4-azaphosphinan-4-yl)benzyl)phthalazin-1(2H)-one [Example 8]” is less than 100 nM; for `CCN1CCP(=O)(c2cc(Cc3n[nH]c(=O)c4ccccc34)ccc2F)CC1` [Example 41, 4-(3-(1-ethyl-4-oxido-1,4-azaphosphinan-4-yl)-4-fluorobenzyl)phthalazin-1(2H)-one] it is less than 100 nM; for “4-(3-(1-(3,3-difluoropyrrolidine-1-carbonyl)-4-oxido-1,4-azaphosphinan-4-yl)-4-fluorobenzyl)phthalazin-1(2H)-one [Example 6]” it is less than 100 nM.
As for “4-(3-(1-(3,3-dimethylbutanoyl)-4-oxido-1,4-azaphosphinan-4-yl)-4-fluorobenzyl)phthalazin-1(2H)-one [Example 5]”, the IC50 is less than 100 nM.
For “4-(3-(1-(cyclopropanecarbonyl)-4-oxido-1,4-azaphosphinan-4-yl)-4-fluorobenzyl)phthalazin-1(2H)-one [Example 3]” the value was less than 100 nM; for `O=c1[nH]nc(Cc2ccc(F)c(P3(=O)CCN(c4ncc5ccccc5n4)CC3)c2)c2ccccc12` [Example 30, 4-(4-fluoro-3-(4-oxido-1-(quinazolin-2-yl)-1,4-azaphosphinan-4-yl)benzyl)phthalazin-1(2H)-one], less than 100 nM; for `O=c1[nH]nc(Cc2ccc(F)c(P3(=O)CCN(c4nccc(Cl)n4)CC3)c2)c2ccccc12` [Example 18, 4-(3-(1-(4-chloropyrimidin-2-yl)-4-oxido-1,4-azaphosphinan-4-yl)-4-fluorobenzyl)phthalazin-1(2H)-one], less than 100 nM.
Regarding “4-(3-(1-(cyclobutanecarbonyl)-4-oxido-1,4-azaphosphinan-4-yl)-4-fluorobenzyl)phthalazin-1(2H)-one [Example 4]”, the IC50 is less than 100 nM.
Turning to `N#Cc1ccc(N2CCP(=O)(c3cc(Cc4n[nH]c(=O)c5ccccc45)ccc3F)CC2)nc1` [Example 14, 6-(4-(2-fluoro-5-((4-oxo-3,4-dihydrophthalazin-1-yl)methyl)phenyl)-4-oxido-1,4-azaphosphinan-1-yl)nicotinonitrile], the IC50 is less than 100 nM.
For `O=c1[nH]nc(Cc2ccc(F)c(P3(=O)CCN(C4CCC4)CC3)c2)c2ccccc12` [Example 39, 4-(3-(1-cyclobutyl-4-oxido-1,4-azaphosphinan-4-yl)-4-fluorobenzyl)phthalazin-1(2H)-one] the value was less than 100 nM.
For `O=c1[nH]nc(Cc2ccc(F)c(P3(=O)CCN(c4ncccc4C(F)(F)F)CC3)c2)c2ccccc12` [Example 27, 4-(4-fluoro-3-(4-oxido-1-(3-(trifluoromethyl)pyridin-2-yl)-1,4-azaphosphinan-4-yl)benzyl)phthalazin-1(2H)-one] the value was 100 to 1000 nM; for `O=c1[nH]nc(Cc2ccc(F)c(P3(=O)CCN(c4ncnc5ccccc45)CC3)c2)c2ccccc12` [Example 21, 4-(4-fluoro-3-(4-oxido-1-(quinazolin-4-yl)-1,4-azaphosphinan-4-yl)benzyl)phthalazin-1(2H)-one], less than 100 nM; for `O=c1[nH]nc(Cc2ccc(F)c(P3(=O)CCN(c4cc(Cl)ncn4)CC3)c2)c2ccccc12` [Example 22, 4-(3-(1-(6-chloropyrimidin-4-yl)-4-oxido-1,4-azaphosphinan-4-yl)-4-fluorobenzyl)phthalazin-1(2H)-one], less than 100 nM.
The figure for `O=c1[nH]nc(Cc2ccc(F)c(P3(=O)CCN(CC4CC4)CC3)c2)c2ccccc12` [Example 43, 4-(3-(1-(cyclopropylmethyl)-4-oxido-1,4-azaphosphinan-4-yl)-4-fluorobenzyl)phthalazin-1(2H)-one] is less than 100 nM; for `N#Cc1ccc(N2CCP(=O)(c3cc(Cc4n[nH]c(=O)c5ccccc45)ccc3F)CC2)cc1` [Example 15, 4-(4-(2-fluoro-5-((4-oxo-3,4-dihydrophthalazin-1-yl)methyl)phenyl)-4-oxido-1,4-azaphosphinan-1-yl)benzonitrile] it is 1000 to 10000 nM.
For `O=c1[nH]nc(Cc2ccc(F)c(P3(=O)CCN(c4cc(C(F)(F)F)ccn4)CC3)c2)c2ccccc12` [Example 26, 4-(4-fluoro-3-(4-oxido-1-(4-(trifluoromethyl)pyridin-2-yl)-1,4-azaphosphinan-4-yl)benzyl)phthalazin-1(2H)-one], the IC50 was less than 100 nM.
For “(+)-4-[[4-fluoro-3-(4-oxido-1-(pyrimidin-2-yl)-1,4-azaphosphinan-4-yl)phenyl)](hydroxymethyl)]-7-fluorophthalazin-1(2H)-one [Example 59]” the value was less than 100 nM; for `[2H]C([2H])(c1ccc(F)c(P2(=O)CCN(c3ncccn3)CC2)c1)c1n[nH]c(=O)c2cc(F)ccc12` [Example 57, 4-[(4-fluoro-3-(4-oxido-1-(pyrimidin-2-yl)-1,4-azaphosphinan-4-yl)phenyl)dideuteromethyl]-7-fluorophthalazin-1(2H)-one], less than 100 nM; for “4-(4-fluoro-3-(4-oxido-1-(tetrahydrofuran-2-carbonyl)-1,4-azaphosphinan-4-yl)benzyl)phthalazin-1(2H)-one [Example 7]”, 100 to 1000 nM.
For the compound `CN(C)C(=O)N1CCP(=O)(c2cc(Cc3n[nH]c(=O)c4ccccc34)ccc2F)CC1` [Example 9, 4-(2-fluoro-5-((4-oxo-3,4-dihydrophthalazin-1-yl)methyl)phenyl)-N,N-dimethyl-1,4-azaphosphinane-1-carboxamide 4-oxide], the IC50 lay within 100 to 1000 nM.
The figure for `CN1CCP(=O)(c2cc(Cc3n[nH]c(=O)c4ccccc34)ccc2F)CC1` [Example 40, 4-(4-fluoro-3-(1-methyl-4-oxido-1,4-azaphosphinan-4-yl)benzyl)phthalazin-1(2H)-one] is 100 to 1000 nM; for `O=c1[nH]nc(C(O)c2ccc(F)c(P3(=O)CCN(C4CC4)CC3)c2)c2ccccc12` (racemic) [Example 58, (±)-4-[(3-(1-cyclopropyl-4-oxido-1,4-azaphosphinan-4-yl)-4-fluoro-1-phenyl)(hydroxymethyl)]phthalazin-1(2H)-one] it is less than 100 nM; for `CC(=O)c1cccnc1N1CCP(=O)(c2cc(Cc3n[nH]c(=O)c4ccccc34)ccc2F)CC1` [Example 34, 4-(4-fluoro-3-(4-oxido-1-(3-(acetyl)pyridin-2-yl)-1,4-azaphosphinan-4-yl)benzyl)phthalazin-1(2H)-one] it is less than 100 nM.
With `O=c1[nH]nc(Cc2ccc(F)c(P3(=O)CCN(c4ncc(F)cn4)CC3)c2)c2ccccc12` [compound 35, 4-(4-fluoro-3-(4-oxido-1-(5-(fluoro)pyrimidin-2-yl)-1,4-azaphosphinan-4-yl)benzyl)phthalazin-1(2H)-one], the IC50 is less than 100 nM.
